Assay results: the supplement of paper PMC9763283
Counter-ions that a name gives are not always drawn.

Key:
Test in all cases: area under growth-rate inhibition curve (AUC GRI) (dimensionless (GR-based AUC)); higher = less growth inhibition
Details in all cases: exposure time: 72 h; concentrations: 0.1, 1, 10 uM
[1] = tested on: BT474-LTR
Outline: (§1)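 Nuclear counts from Hoechst 33342- or DAPI-stained images were used to estimate the area under the growth-rate inhibition curve, with growth corrected by reference to untreated and DMSO-treated plates and starting plates. The six breast cancer cell line models, comprising two triple-negative lines and parental and drug-combination-resistant HER2+ lines, were treated with compound at 0.1, 1 or 10 µM for 72 h. Data came from 2 biological replicates, using Day 0 and Day 3 plates.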

[2] = tested on: BT474-P
Outline: as §1

[3] = tested on: MDA-MB-231
Outline: as §1

[4] = tested on: MDA-MB-468
Outline: as §1

[5] = tested on: SKBR3-LTR
Outline: as §1

[6] = tested on: SKBR3-P
Outline: as §1

Compound	area under growth-rate inhibition curve [1]	area under growth-rate inhibition curve [2]	area under growth-rate inhibition curve [3]	area under growth-rate inhibition curve [4]	area under growth-rate inhibition curve [5]	area under growth-rate inhibition curve [6]
Br.Cc1ccc(Sc2ccccc2N2CCNCC2)c(C)c1	0.912	0.865	0.879	0.885	0.929	0.872
CC(C)N(CCC(c1ccccc1)c1cc(CO)ccc1O)C(C)C (configuration not stated)	1.06	1.04	1.03	1.04	1.03	0.957
CC(C)c1cc(-c2ccc(F)c3ccccc23)nc(N)n1	1.08	1.03	0.999	1	1.07	1.03
CCCCOc1ccc(C(=O)Nc2ccc(F)cc2F)cc1	1.06	1.02	1.02	1.01	1.05	1.01
CCCN1CCO[C@H]2c3cc(O)ccc3OC[C@@H]21	1.06	1.08	1.02	1.03	1.05	1.03
CCc1c(C(=O)NCCc2ccc(N3CCCCC3)cc2)[nH]c2ccc(Cl)cc12	1.06	1.04	1.02	0.994	1.09	0.994
Cc1cc(NC(=O)Nc2ccc(N(C)C)cc2)c2cc(F)cc(F)c2n1	0.977	0.963	0.936	0.951	0.958	1
CN1CCC(c2c[nH]c3ccc(O)cc23)CC1	0.996	0.996	1	0.984	0.997	1.02
CN1CCN(C(=O)c2cc3cc(Cl)ccc3[nH]2)CC1	1.06	1.02	1.04	1.04	1.05	0.993
CN1CCN(c2nc3ccccc3nc2Cl)CC1	1.01	0.997	0.97	0.986	1.01	0.987
CNCc1ccc(C)c(NC(=O)c2ccc(Nc3nc(-c4ccccc4)c4ccccc4n3)cc2)c1	1.08	0.853	0.877	0.856	0.914	0.876
COc1cc(NC(=O)c2ccccn2)ccc1Cl	1.07	1.01	1.05	1.01	1.05	0.979
COc1cc(OC)c(NC(=O)Nc2cc(C)on2)cc1Cl	1.05	0.977	1.03	1.02	1.06	1
COc1ccc(NS(=O)(=O)c2sc3ccc(Cl)cc3c2C)cc1N1CCNCC1	1.03	0.976	1.05	0.964	1.05	0.997
COc1ccccc1N1CCN(CCN(C(=O)C2CCCCC2)c2ccccn2)CC1.O=C(O)/C=C\C(=O)O	1.06	1.02	1.03	0.993	1.04	0.976
Cc1nc(C#Cc2ccnc(Cl)c2)c(C)n1-c1ccc(OC(F)(F)F)cc1	1.09	0.969	1.03	1	0.968	1
CC1CCN(CCC2CCCN2S(=O)(=O)c2cccc(O)c2)CC1.Cl (configuration not stated)	1.06	1.04	1.02	1.02	1.05	1
O=C(NCc1ccncc1)C12CC3CC(C1)CC(c1ccc(Cl)cc1)(C3)C2	1.08	0.985	1.04	1.01	1.04	1.02
O=C(Nc1cccc(Cl)c1)c1ccccn1	1.06	1.02	1.03	1.02	1.04	1.01
O=C(NCC1CCOCC1)c1cnc(Nc2ccc(Cl)cc2Cl)nc1C(F)(F)F	1.04	0.983	1	1.01	1.05	1.02

Compound	area under growth-rate inhibition curve [1]	area under growth-rate inhibition curve [2]	area under growth-rate inhibition curve [3]	area under growth-rate inhibition curve [4]	area under growth-rate inhibition curve [5]	area under growth-rate inhibition curve [6]
O=C(c1ccc(F)cc1)N1CCC[C@H](c2nc(-c3ccc(F)cc3)no2)C1	1.07	1.02	1.01	1.04	1.11	1.01
Nc1nc(NCCc2ccc(O)cc2)nc2nc(-c3ccco3)nn12	1.03	1.01	1.03	0.973	0.956	0.822
Nc1nc2c(cnn2CCc2ccccc2)c2nc(-c3ccco3)nn12	0.94	0.99	1	0.781	0.902	0.666
O=S(=O)(c1ccccc1)c1cnc2c(N3CCNCC3)cccc2c1	1.08	0.99	1.03	1.01	1.05	0.997
N#Cc1cc(CN2CCC(Nc3ncnc4sc(Cl)cc34)CC2)ccc1F.O=C(O)/C=C\C(=O)O	0.875	0.879	0.988	0.885	0.964	0.839
OC[C@H]1O[C@@H](c2ccc(Cl)c(Cc3ccc(O[C@H]4CCOC4)cc3)c2)[C@H](O)[C@@H](O)[C@@H]1O	1.07	1.03	1.03	1.05	1.09	1.03
Cc1ccc(OCC(O)C(C)NC(C)C)c2c1CCC2.[Cl-].[H+] (configuration not stated)	1.11	1.04	1.06	1.05	1.07	1.01
CCNC1(C(N)=O)CCN(c2ncnc3c2nc(-c2ccccc2Cl)n3-c2ccc(Cl)cc2)CC1.[Cl-].[H+]	1.06	0.991	0.999	1	1.04	1.01
OC(CN1CCN(c2cccc(Cl)c2)CC1)C(c1ccccc1)c1ccccc1.[Cl-].[Cl-].[H+].[H+] (configuration not stated)	1.07	1.04	1.04	0.981	1.05	0.982
O=C1CCCC2C3CCCN4CCCC(CN12)C34 (single isomer, unassigned; (+)) [(+)-Matrine]	1.08	1.06	1.03	1.01	1.09	1.02
CCC(=C(c1ccc(O)cc1)c1ccc(OCCN(C)C)cc1)c1ccccc1 [4-hydroxytamoxifen]	0.936	0.865	0.935	0.896	0.934	0.979
Nc1ncnc2c1c(I)cn2[C@@H]1O[C@H](CO)[C@H](O)C1O (some centres not stated) [5-Iodotubercidin]	0.673	0.676	0.705	0.73	0.627	0.632
CCN(CC)CCCCN1c2ccccc2Oc2ccc(Cl)cc21.Cl [10-DEBC hydrochlorid]	0.995	1.04	1.04	1.06	1.05	1.04
CC(=O)[C@@]1(O)CC[C@H]2[C@@H]3CCC4=CC(=O)CC[C@]4(C)[C@H]3CC[C@@]21C [17-Hydroxyprogesterone]	1.07	1.02	1.02	1	1.03	1
C[C@@]12N[C@@H](Cc3ccccc31)c1ccccc12.O=C(O)/C=C/C(=O)O [(-)-MK 801 Maleate]	1.08	1.03	1.03	1.04	1.06	1.03
CN1CCc2cccc3c2[C@H]1Cc1ccc(O)c(O)c1-3.[Cl-].[H+] [(R)-(-)-Apomorphine hydrochloride]	0.963	0.933	1.03	0.977	1.04	0.965
CCN(CC)C(=O)c1ccc(C2=CC3(CCNCC3)Oc3cccc(O)c32)cc1.Cl [ADL5859 HCl]	1.07	1.05	1.03	1.04	1.1	1.03
CN1CCCCC1Cn1cc(C(=O)c2cc([N+](=O)[O-])ccc2I)c2ccccc21 (configuration not stated) [AM1241]	1	0.977	0.987	0.972	1.02	0.998
CC(=O)NCCCS(=O)(=O)[O-].CC(=O)NCCCS(=O)(=O)[O-].[Ca+2] [Acamprosate calcium]	1.01	1.01	0.995	1	1.03	1.01
CCCC(=O)Nc1ccc(OCC(O)CNC(C)C)c(C(C)=O)c1.[Cl-].[H+] (configuration not stated) [Acebutolol HCl]	1.11	1.05	1.03	1.03	1.07	1.04

Compound	area under growth-rate inhibition curve [1]	area under growth-rate inhibition curve [2]	area under growth-rate inhibition curve [3]	area under growth-rate inhibition curve [4]	area under growth-rate inhibition curve [5]	area under growth-rate inhibition curve [6]
CC(=O)OCC[N+](C)(C)C.[Cl-] [Acetylcholine Chloride]	1.09	1.03	1.04	1.04	1.05	1.02
O=C(OC1C[N+]2(CCCOc3ccccc3)CCC1CC2)C(O)(c1cccs1)c1cccs1.[Br-] (configuration not stated) [Aclidinium Bromide]	0.997	1.01	1.03	1.03	1.02	0.988
CNCC(=O)c1ccc(O)c(O)c1.Cl [Adrenalone HCl]	1.1	1.04	0.964	1.02	1.07	1.03
CN1CCC(=C2c3ccccc3CCn3c(C=O)cnc32)CC1 [Alcaftadine]	1.04	1	1.04	1.03	1.06	1.02
COc1cc2nc(N(C)CCCNC(=O)C3CCCO3)nc(N)c2cc1OC.[Cl-].[H+] (configuration not stated) [Alfuzosin HCl]	1.09	1.03				1.01
O=c1ncnc2[nH][nH]cc1-2 [Allopurinol]	1.1	1.06	1.03	1.06	1.07	1.03
CNC(=O)[C@@H](c1ccccc1)N1CCc2cc(OC)c(OC)cc2[C@@H]1CCc1ccc(C(F)(F)F)cc1.Cl [Almorexant HCl]	1.07	0.976	1.01	1	0.988	0.977
CN(C)CCc1c[nH]c2ccc(CS(=O)(=O)N3CCCC3)cc12.O=C(O)CC(O)C(=O)O [Almotriptan Malate]	1.09	1.02	1.02	1.04	1.06	1.02
C=CCC1(O)CCC2C3CCC4=CC(=O)CCC4=C3C=CC21C (configuration not stated) [Altrenogest]	1.01	0.953	1.03	1	1.08	1.04
C[C@H]1CN(C[C@H](Cc2ccccc2)C(=O)NCC(=O)O)CC[C@@]1(C)c1cccc(O)c1 [Alvimopan]	1.03	0.995	1.03	1.03	1.04	1.02
Cl.NC12CC3CC(CC(C3)C1)C2 [Amantadine HCl]	1.08	1.05	1.03	1.02	1.05	1.05
COC(c1ccccc1)(c1ccccc1)C(Oc1nc(C)cc(C)n1)C(=O)O (configuration not stated) [Ambrisentan]	1.05	1.01	1.05	1.04	1.06	1.03
CC(NC(C)(C)C)C(=O)c1cccc(Cl)c1 (configuration not stated) [Amfebutamone HCl]	1.03	1.02	0.987	1.01	1.03	1.01
CCN1CCCC1CNC(=O)c1cc(S(=O)(=O)CC)c(N)cc1OC (configuration not stated) [Amisulpride]	0.985	1.01	0.988	1.01	0.975	1.02
CN(C)CCC=C1c2ccccc2CCc2ccccc21.Cl [Amitriptyline HCl]	1.08	1.03	1.03	0.997	1.09	0.983
COc1ccc(C(=O)N2CCCC2=O)cc1 [Aniracetam]	1.08	1.04	1.01	1.02	1	1.01
CNCCCN1c2ccccc2CCc2ccccc21.Cl [Desipramine hydrochloride]	0.997	0.985	1.03		1.06	
CCCCC(=O)N(Cc1ccc(-c2ccccc2-c2nnn[nH]2)cc1)[C@H](C(=O)O)C(C)C [Valsartan]	1.02	0.974	1.04	1.04		1.02
